Key:
Experiment in all cases: relative viability (nuclei count vs DMSO), 5 days (fraction); higher = more cells survive
[1] = compound: CCn1c(-c2nonc2N)nc2cnc(Oc3cccc(NC(=O)c4ccc(OCCN5CCOCC5)cc4)c3)cc21 + CC(=O)c1c(C)c2cnc(Nc3ccc(N4CCNCC4)cn3)nc2n(C2CCCC2)c1=O [Palbociclib] (partner 0.5 µM)
Procedure, shortened: (§1)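 Lung cancer cell lines in 1536-well plates were dosed by pin tool the day after seeding, either with one drug alone or with a fixed anchor-drug dose plus five library-drug doses (not always all listed) in √10 steps. After 5 days, cells were fixed and their nuclei stained in one step (final 0.05% Triton X-100, 1% formaldehyde, 1 ug/ml Hoechst), then counted on 4× images. Relative viability is the nuclei count in treated wells divided by that in vehicle wells. Values are medians of duplicate plates.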

Mirin + Pemetrexed = compound: N=C1NC(=O)/C(=C/c2ccc(O)cc2)S1 [Mirin] + Nc1nc2[nH]cc(CCc3ccc(C(=O)N[C@@H](CCC(=O)O)C(=O)O)cc3)c2c(=O)[nH]1 [Pemetrexed] (partner 0.2 µM)
Procedure, shortened: as §1

[2] = compound: CCC1=CN=CN=C1N2CCN(CC2)CC3=NC4=C(N3)C=C(C=C4)C(F)(F)F + CC(C)C[C@H](NC(=O)[C@H](Cc1ccccc1)NC(=O)c1cnccn1)B(O)O [Bortezomib] (partner 0.002 µM)
Procedure, shortened: as §1

[3] = compound: CCC1=CN=CN=C1N2CCN(CC2)CC3=NC4=C(N3)C=C(C=C4)C(F)(F)F + C[C@]1(O)C[C@@H](c2nc(-c3ccc4ccc(-c5ccccc5)nc4c3)c3c(N)nccn32)C1 [Linsitinib] (partner 1 µM)
Procedure, shortened: as §1

| Cell Line | relative viability ([1]; first compound 0.04 µM) | relative viability ([1]; first compound 0.1265 µM) | relative viability ([1]; first compound 0.4 µM) | relative viability ([1]; first compound 1.265 µM) | relative viability ([1]; first compound 4 µM) | relative viability (Mirin + Pemetrexed; first compound 0.25 µM) | relative viability (Mirin + Pemetrexed; first compound 0.7906 µM) | relative viability (Mirin + Pemetrexed; first compound 2.5 µM) | relative viability (Mirin + Pemetrexed; first compound 7.906 µM) | relative viability (Mirin + Pemetrexed; first compound 25 µM) | relative viability ([2]; first compound 0.1265 µM) | relative viability ([2]; first compound 0.4 µM) | relative viability ([2]; first compound 1.265 µM) | relative viability ([2]; first compound 4 µM) | relative viability ([3]; first compound 0.04 µM) | relative viability ([3]; first compound 0.1265 µM) | relative viability ([3]; first compound 0.4 µM) | relative viability ([3]; first compound 1.265 µM) | relative viability ([3]; first compound 4 µM) | relative viability ([2]; first compound 0.04 µM) |
| --- | --- | --- | --- | --- | --- | --- | --- | --- | --- | --- | --- | --- | --- | --- | --- | --- | --- | --- | --- | --- |
| NCI-H2170 | 0.434 | 0.405 | 0.378 | 0.408 | 0.407 | 0.249 | 0.282 | 0.268 | 0.263 | 0.28 |  |  |  |  |  |  |  |  |  |  |
| NCI-H522 | 1.18 | 1.13 | 0.853 | 0.909 | 0.827 | 0.799 | 1.02 | 0.764 | 1 | 0.522 |  |  |  |  |  |  |  |  |  |  |
| LCLC-97TM1 | 0.276 | 0.245 |  | 0.27 | 0.281 | 0.161 | 0.128 | 0.14 | 0.149 | 0.127 | 0.516 | 0.598 | 0.668 | 0.942 | 0.23 | 0.185 | 0.158 | 0.166 | 0.202 |  |
| NCI-H1299 |  |  |  |  |  |  |  |  |  |  | 0.998 | 1.01 | 0.983 | 1.01 | 1.05 | 0.935 | 0.979 | 0.968 | 0.955 | 1.06 |
| NCI-H322M | 0.543 | 0.51 | 0.487 | 0.451 | 0.486 | 0.633 | 0.528 | 0.615 | 0.713 | 0.568 | 1.17 | 1.2 | 1.3 | 1.39 | 0.979 | 0.801 | 0.911 | 0.909 | 1.02 | 1.37 |
| NCI-H1395 | 0.562 | 0.558 | 0.565 | 0.457 | 0.482 | 0.898 |  | 0.847 | 0.829 | 0.618 |  |  |  |  | 1.12 | 1.01 | 1.24 | 0.855 | 1.09 |  |
| NCI-H2009 | 0.175 | 0.196 | 0.141 | 0.112 | 0.19 | 1.05 | 1.11 | 1.01 | 0.964 | 1.16 | 0.999 | 1.03 | 0.716 | 0.982 | 1.16 | 1.19 | 1.21 | 1.2 | 1.17 | 1.13 |
| NCI-H1651 | 0.587 | 0.584 | 0.476 | 0.369 | 0.432 | 0.241 | 0.532 | 0.599 | 0.532 | 0.612 | 0.926 | 0.953 | 0.851 | 0.96 | 0.96 | 1.09 | 0.934 | 0.938 | 0.944 | 0.876 |
| NCI-H1944 | 0.269 | 0.377 | 0.342 | 0.329 | 0.38 | 0.636 | 0.627 | 0.598 | 0.558 | 0.598 |  |  |  |  | 1.36 | 1.21 | 1.08 |  | 0.99 |  |
| Calu-6 |  |  |  |  |  |  |  |  |  |  | 0.924 | 0.871 | 0.884 | 0.829 | 0.883 | 0.851 | 0.871 | 0.819 | 1.02 | 0.969 |
| NCI-H1703 |  |  |  |  |  |  |  |  |  |  | 0.26 | 0.248 | 0.446 | 0.307 | 0.595 | 0.669 | 0.851 | 0.473 | 0.771 | 0.305 |
| NCI-H1650 | 0.466 | 0.32 | 0.294 | 0.335 | 0.328 | 0.339 | 0.382 | 0.377 | 0.324 | 0.359 | 0.222 | 0.199 | 0.211 | 0.19 |  |  |  |  |  | 0.18 |
| NCI-H2342 | 0.467 | 0.52 | 0.554 | 0.52 | 0.553 | 0.728 | 0.801 | 0.769 |  | 0.735 |  |  |  |  |  |  |  |  |  |  |
| ChaGo-K-1 | 1.08 | 0.896 | 0.846 | 0.907 | 0.928 | 0.263 | 0.252 | 0.255 | 0.259 | 0.256 | 0.97 | 0.964 | 1.09 | 0.985 |  |  |  |  |  |  |
| NCI-H727 |  | 0.63 | 0.599 | 0.657 | 0.622 |  |  |  |  |  | 0.689 | 0.876 |  | 0.744 | 0.246 | 0.183 | 0.495 |  | 0.299 | 0.998 |
| SW 900 | 0.54 | 0.517 | 0.572 | 0.521 | 0.574 | 0.505 | 0.494 | 0.47 | 0.494 | 0.48 |  |  |  |  |  |  |  |  |  |  |
| ABC-1 | 0.647 | 0.941 | 0.635 | 0.332 | 0.393 |  |  |  |  |  | 0.314 | 0.312 | 0.402 | 0.37 | 0.873 | 0.777 | 0.676 | 0.631 | 0.831 | 0.315 |
| NCI-H1648 | 0.277 | 0.245 | 0.231 | 0.474 | 0.388 | 0.76 |  | 0.853 | 0.678 | 0.55 |  |  |  |  |  |  |  |  |  |  |
| LK-2 | 0.627 | 0.787 | 0.541 | 0.568 | 0.673 | 0.129 |  | 0.257 | 0.164 | 0.257 |  |  |  |  | 0.739 | 0.515 | 0.588 | 0.319 | 0.598 |  |
| SK-MES-1 | 0.353 | 0.301 | 0.284 | 0.303 | 0.309 | 0.993 | 1.09 | 0.998 | 1.08 | 1.01 |  |  |  |  | 1.02 | 1.06 | 1.16 | 1.1 | 0.95 |  |
| NCI-H1793 | 0.263 | 0.304 | 0.3 | 0.283 | 0.251 | 0.862 |  | 0.895 | 1.11 | 0.977 |  |  |  |  | 1 | 0.677 | 0.825 |  | 0.895 |  |
| IA-LM |  |  |  |  |  |  |  |  |  |  | 0.911 | 0.761 | 0.752 | 0.702 | 0.664 | 0.617 | 0.568 | 0.45 | 0.464 | 0.786 |
| A549 |  |  |  |  |  |  |  |  |  |  |  |  |  |  | 0.596 | 0.549 | 0.629 | 0.28 | 0.615 |  |
| NCI-H358 | 0.162 | 0.167 | 0.134 | 0.145 | 0.135 | 0.162 | 0.176 | 0.182 | 0.161 | 0.143 |  |  |  |  | 0.809 | 0.656 | 0.656 | 0.657 | 0.607 |  |

From the supplement of paper PMC10307832
